Positions count from the first letter of the chain named. pIC50: −log10 of the molar value. Like-named read-outs stand apart in the source and are kept apart here.
Assays:
[1] = target: T1, murine COX-2 mutant Tyr341Ala (Mus musculus, UniProt Q05769, Y341A)
T1 sequence (Q05769 18-604 Y341A): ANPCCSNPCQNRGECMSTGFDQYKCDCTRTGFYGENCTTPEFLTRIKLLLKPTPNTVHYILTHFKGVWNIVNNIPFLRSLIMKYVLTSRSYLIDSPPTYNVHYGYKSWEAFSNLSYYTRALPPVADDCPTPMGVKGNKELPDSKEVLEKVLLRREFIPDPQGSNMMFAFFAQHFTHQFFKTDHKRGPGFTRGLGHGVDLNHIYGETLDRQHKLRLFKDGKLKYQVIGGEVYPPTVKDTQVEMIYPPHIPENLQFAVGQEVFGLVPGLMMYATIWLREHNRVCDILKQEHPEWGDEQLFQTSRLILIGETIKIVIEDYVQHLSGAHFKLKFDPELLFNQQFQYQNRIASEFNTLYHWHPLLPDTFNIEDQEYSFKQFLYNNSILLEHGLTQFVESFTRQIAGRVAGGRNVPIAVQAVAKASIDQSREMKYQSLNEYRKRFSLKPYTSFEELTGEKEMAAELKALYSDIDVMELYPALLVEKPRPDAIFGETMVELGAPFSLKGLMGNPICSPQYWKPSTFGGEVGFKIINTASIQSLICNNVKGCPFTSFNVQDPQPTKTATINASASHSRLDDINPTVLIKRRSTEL

[2] = target: T2, Val509lleArg499HisVal420lle mutant (VRV mutant) (Mus musculus, UniProt Q05769, R499H/V420I/V509I)
T2 sequence (Q05769 18-604 V420I/R499H/V509I): T1 sequence (Q05769 18-604 Y341A) with A324Y, V403I, R482H, V492I

ovine COX-1 = target: T3, ovine COX-1 (Ovis aries, UniProt P05979); assay: TLC assay of cyclooxygenase inhibition, purified ovine COX-1; assay type: biochemical; conditions: Table 2, amide derivatives; ovine COX-1 (44 nM), 20 min, 1-14C-AA at 37°C for 30 sec
T3 construct: COX-1 was purified from ram seminal vesicles obtained from Oxford Biomedical Research, Inc; tissue Oxford Biomedical Research, Inc. (Oxford, Michigan); host or cells: ram seminal vesicles
T3 sequence (P05979 25-600): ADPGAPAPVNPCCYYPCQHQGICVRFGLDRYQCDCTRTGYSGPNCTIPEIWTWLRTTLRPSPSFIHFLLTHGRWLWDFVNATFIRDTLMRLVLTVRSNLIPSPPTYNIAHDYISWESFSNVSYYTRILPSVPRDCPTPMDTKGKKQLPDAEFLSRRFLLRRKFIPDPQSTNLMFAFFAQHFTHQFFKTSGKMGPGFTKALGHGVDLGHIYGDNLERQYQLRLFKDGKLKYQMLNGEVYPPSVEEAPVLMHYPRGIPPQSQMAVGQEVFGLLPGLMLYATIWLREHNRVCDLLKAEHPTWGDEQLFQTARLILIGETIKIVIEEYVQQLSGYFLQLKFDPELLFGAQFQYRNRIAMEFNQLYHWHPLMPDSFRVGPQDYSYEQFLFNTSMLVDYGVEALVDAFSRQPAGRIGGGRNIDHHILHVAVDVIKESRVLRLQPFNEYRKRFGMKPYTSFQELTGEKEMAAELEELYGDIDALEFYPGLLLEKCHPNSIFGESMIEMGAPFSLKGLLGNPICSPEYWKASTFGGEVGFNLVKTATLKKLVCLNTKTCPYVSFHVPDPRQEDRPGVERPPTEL

COX-2 [3] = target: T4, COX-2 (Homo sapiens, UniProt P35354); assay: TLC assay of cyclooxygenase inhibition, purified human COX-2; assay type: biochemical
T4 sequence (P35354 18-604): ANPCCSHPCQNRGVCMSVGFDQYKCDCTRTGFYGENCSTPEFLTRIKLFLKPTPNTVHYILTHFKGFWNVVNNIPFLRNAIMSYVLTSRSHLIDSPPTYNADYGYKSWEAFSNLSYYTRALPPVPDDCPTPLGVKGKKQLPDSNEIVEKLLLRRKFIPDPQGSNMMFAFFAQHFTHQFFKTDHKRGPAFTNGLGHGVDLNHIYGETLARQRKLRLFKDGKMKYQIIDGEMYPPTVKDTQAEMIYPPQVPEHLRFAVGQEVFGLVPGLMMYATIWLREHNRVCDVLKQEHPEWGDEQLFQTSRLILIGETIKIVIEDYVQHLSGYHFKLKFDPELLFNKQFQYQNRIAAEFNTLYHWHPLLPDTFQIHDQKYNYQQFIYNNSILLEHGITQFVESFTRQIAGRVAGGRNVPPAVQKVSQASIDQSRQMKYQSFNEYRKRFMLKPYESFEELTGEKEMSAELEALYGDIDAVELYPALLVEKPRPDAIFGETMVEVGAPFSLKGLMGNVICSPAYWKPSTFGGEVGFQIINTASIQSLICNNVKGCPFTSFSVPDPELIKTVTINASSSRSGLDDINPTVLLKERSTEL

rat foot pad edema = assay: Rat foot pad edema model (carrageenan); assay type: in vivo, male Sprague-Dawley rats; conditions: 2 mg/kg orally, corrected for 0.1 mL injection volume
Method: Rats were injected with carrageenan, which triggers a rapid edema (swelling) within 3 hours that can be quantitatively measured by volume displacement.
In these experiments, the carrageenan that was injected was in 0.1 mL of aqueous saline so that 0.1 mL volume increase was due to the injection alone. […] More specifically, male Sprague-Dawley rats (150 g) received a subplantar injection of carrageenan (0.1 mL of a 1% suspension of carrageenan in sterile aqueous saline) into the right hind footpad while mildly anesthetized with methoxyflurane. […] The ipsilateral footpad volume (mL) was measured with a water displacement plethysmometer at time = 3 hours post-injection and compared to the time = 0 pre-injection paw volume for edema calculations.

COX-1 = COX-1 (Homo sapiens, UniProt P23219); conditions: background / literature statement; cited from earlier work
COX-2 [4] = target: T4, COX-2; conditions: background / literature statement; cited from earlier work

COX-1, sequence (P23219 24-599): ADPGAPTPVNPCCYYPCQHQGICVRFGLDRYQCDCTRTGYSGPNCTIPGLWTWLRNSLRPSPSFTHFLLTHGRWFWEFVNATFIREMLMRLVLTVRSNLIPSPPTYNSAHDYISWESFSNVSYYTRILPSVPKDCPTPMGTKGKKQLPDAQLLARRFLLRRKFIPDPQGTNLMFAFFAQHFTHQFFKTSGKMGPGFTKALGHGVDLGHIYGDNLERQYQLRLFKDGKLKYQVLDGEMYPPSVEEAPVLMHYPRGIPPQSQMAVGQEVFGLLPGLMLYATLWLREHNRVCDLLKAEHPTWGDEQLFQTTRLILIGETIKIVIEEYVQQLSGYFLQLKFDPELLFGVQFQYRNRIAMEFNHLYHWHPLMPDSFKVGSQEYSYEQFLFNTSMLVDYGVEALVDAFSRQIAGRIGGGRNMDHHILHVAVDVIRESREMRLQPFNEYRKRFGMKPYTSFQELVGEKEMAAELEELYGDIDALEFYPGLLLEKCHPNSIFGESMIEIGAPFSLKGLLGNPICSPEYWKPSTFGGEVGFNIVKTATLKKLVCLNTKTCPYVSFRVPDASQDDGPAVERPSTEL

For `COc1ccc2c(c1)c(CC(=O)NCCc1ccccc1)c(C)n2C(=O)c1ccc(Cl)cc1` [Compound 38, Indomethacin-N-(2-phenethyl) amide], the “inhibition of Tyr341Ala mutant” value [1] was “resistant to inhibition” and the “inhibition of triple mutant VRV” value [2] was “resistant to inhibition”.
Compound `COc1ccc2c(c1)c(CC(=O)Nc1ccc(F)cc1)c(C)n2C(=O)c1ccc(Cl)cc1` [Compound 39, Indomethacin-N-(4-fluorophenyl) amide] has an IC50 (ovine COX-1) greater than 66 µM.
Compound `Cc1nc(-c2ccccc2)c(-c2ccc(S(N)(=O)=O)cc2)o1` [2-methyl-4-phenyl-5-sulfonamidophenyl oxazole, reference compound] has a Selectivity (COX-2 [3]; Table 1, ester derivatives, Ratio of IC50 (COX-1):IC50 (COX-2)) greater than 1100.
`CCn1nccc1NC(=O)Cc1c(C)n(C(=O)c2ccc(Cl)cc2)c2ccc(OC)cc12` [Compound 49, Indomethacin-N-5-((1-ethyl)pyrazolo) amide] gave a pIC50 (COX-2 [3]) of 6.15 and a Selectivity (COX-2 [3]) greater than 94.
In the case of `COc1ccc2c(c1)c(CC(=O)O)c(C)n2C(=O)c1ccc(Cl)cc1` [Compound 1, Indomethacin], the reduction in inflammation (rat foot pad edema) was “comparable reduction in inflammation”.
For `CC1=C(CC(=O)O)c2cc(F)ccc2/C1=C\c1ccc(S(C)(=O)=O)cc1` [sulindac sulfone], the “inhibition of COX-1 (in words)” value (COX-1) is listed as “does not inhibit” and the “inhibition of COX-2 (in words)” value (COX-2 [4]) is listed as “does not inhibit”.
In the case of `COc1ccc2c(c1)c(CC(=O)Nc1cccnc1)c(C)n2C(=O)c1ccc(Cl)cc1` [Compound 47, Indomethacin-N-(3-pyridyl) amide], the IC50 (ovine COX-1) was greater than 66 µM.
With `COc1ccc2c(c1)c(CC(=O)OCCC1CCCCC1)c(C)n2C(=O)c1ccc(Cl)cc1` [Compound 10, Indomethacin cyclohexylethyl ester] the “IC value at which measurement of COX-2 inhibition was stopped” value (COX-2 [3]; tertiary amides) was 33.
Compound “Indomethacin 3-pyridyl ester [Compound 24]” has a Selectivity (COX-2 [3]) of 50.

From patent EP1148783B1, “CONVERTING COX INHIBITION COMPOUNDS THAT ARE NOT COX-2 SELECTIVE INHIBITORS TO DERIVATIVES THAT ARE COX-2 SELECTIVE INHIBITORS” (priority 1999, dated 2000)
